According to PMC10072319 (Bioorganic & medicinal chemistry letters, 2023):

Legend:
T. b. brucei Lister 427 = type: cell-based, Trypanosoma brucei brucei; conditions: for activity against T. b. brucei, in words: first pass screen at 4 μM
T. b. brucei parasites = assay: Time-kill experiment, parasites quantified by hemocytometer cell counting; type: cell-based, Trypanosoma brucei brucei; conditions: for time required to kill the parasites: all concentrations tested (46: 1, 2 and 4 μM; pentamidine: 0.5, 1 and 2 μM)
[1] = test system: T. b. brucei trypanosomes; assay: Washout experiment; type: cell-based, Trypanosoma brucei brucei; conditions: 1, 2 and 4 μM for 6, 4 and 2 h, washed three times, monitored a further 48 h
HEK293 cells = assay: Resazurin cell viability; conditions: read-out: HEK293 CC50, 48 h, mean ± SD

## O=C(/C=C/c1ccc(C(F)(F)F)cc1)CC(=O)/C=C/c1ccc(C(F)(F)F)cc1 [Compound 11]
T. b. brucei Lister 427
  activity against T. b. brucei, in words: inactive

## COc1cc(/C=C/C(=O)/C=C/c2cc(OC)c(OC)c(OC)c2)cc(OC)c1OC [Compound 13]
T. b. brucei Lister 427
  activity against T. b. brucei, in words: sub-micromolar activity

## COc1cccc(/C=C/C(=O)/C=C/c2cccc(OC)c2)c1 [Compound 28]
T. b. brucei Lister 427
  activity against T. b. brucei, in words: inactive

## COc1ccc(/C=C/C(=O)/C=C/c2ccccc2)cc1 [Compound 35]
T. b. brucei Lister 427
  activity against T. b. brucei, in words: no activity

## COc1cc(/C=C2\CCC/C(=C\c3cc(OC)cc(OC)c3)C2=O)cc(OC)c1 [Compound 34]
T. b. brucei Lister 427
  activity against T. b. brucei, in words: inactive

## COc1ccc(/C=C/C(=O)CC(=O)/C=C/c2ccc(OC)c(OC)c2)cc1OC [Compound 8]
T. b. brucei Lister 427
  activity against T. b. brucei, in words: inactive

## N=C(N)c1ccc(OCCCCCOc2ccc(C(=N)N)cc2)cc1 [Pentamidine, reference compound]
T. b. brucei parasites
  time required to kill the parasites: > 30 h

## O=C(/C=C/c1ccccc1)/C=C/c1cccc([N+](=O)[O-])c1 [Compound 46]
[1]
  trypanocidal vs trypanostatic activity after washout: trypanocidal rather than trypanostatic
T. b. brucei parasites
  time required to kill the parasites: less than 24 h
T. b. brucei parasites; at 2 and 4 μM
  time required to kill the parasite: less than 6 h

## COc1ccc(/C=C/C(=O)/C=C/c2ccc(OC)cc2)cc1 [Compound 29]
T. b. brucei Lister 427
  activity against T. b. brucei, in words: inactive

## O=C(/C=C/c1ccccc1)/C=C/c1ccccc1 [Compound 3, dibenzylideneacetone]
T. b. brucei Lister 427; read-out: T. b. brucei EC50, bloodstream forms, Lister 427, SYBR green, 72 h, mean ± SD
  EC50: 800 ± 200 nM
HEK293 cells
  CC50: 8.33 ± 0.48 µM

## O=C(/C=C/c1ccc(Cl)c(Cl)c1)CC(=O)/C=C/c1ccc(Cl)c(Cl)c1 [Compound 12]
T. b. brucei Lister 427
  activity against T. b. brucei, in words: inactive

## O=C(/C=C/c1ccccc1Cl)/C=C/c1ccccc1Cl [Compound 19]
T. b. brucei Lister 427
  selectivity index (SI = HEK293 CC50/T. b. brucei EC50): above 10
  activity against T. b. brucei, in words: sub-micromolar activity

## CN(C)c1ccc(/C=C/C(=O)/C=C/c2ccccc2)cc1 [Compound 40]
T. b. brucei Lister 427
  activity against T. b. brucei, in words: no activity

## COc1ccc(/C=C/C(=O)/C=C/c2ccc(OC)c(OC)c2)cc1OC [Compound 16]
T. b. brucei Lister 427
  selectivity index (SI = HEK293 CC50/T. b. brucei EC50): above 10
  activity against T. b. brucei, in words: sub-micromolar activity

## O=C(/C=C/c1ccccc1)CC(=O)/C=C/c1ccccc1 [Compound 5]
T. b. brucei Lister 427
  activity against T. b. brucei, in words: no measurable activity

## COc1cccc(/C=C/C(=O)CC(=O)/C=C/c2cccc(OC)c2)c1 [Compound 7]
T. b. brucei Lister 427
  activity against T. b. brucei, in words: inactive
